Columns and labels:
OR1A1 = biological target: T1, OR1A1 (Homo sapiens, UniProt Q9P1Q5); assay: GloSensor cAMP assay, HEK293T with RTP1S; format: cell-based
T1 sequence (Q9P1Q5 1-309): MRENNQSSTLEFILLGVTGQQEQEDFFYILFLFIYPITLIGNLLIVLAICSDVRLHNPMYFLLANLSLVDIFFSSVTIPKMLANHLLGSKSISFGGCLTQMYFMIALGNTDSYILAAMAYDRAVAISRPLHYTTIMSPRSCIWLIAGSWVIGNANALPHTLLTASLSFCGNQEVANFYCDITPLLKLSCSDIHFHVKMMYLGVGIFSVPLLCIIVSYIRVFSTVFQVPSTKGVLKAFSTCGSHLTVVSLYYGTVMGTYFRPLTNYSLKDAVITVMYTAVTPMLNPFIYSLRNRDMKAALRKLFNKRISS

OR51E1 = biological target: T2, OR51E1 (Homo sapiens, UniProt Q8TCB6); assay: GloSensor cAMP assay, HEK293T; format: cell-based
T2 sequence (Q8TCB6 2-318 limits assumed): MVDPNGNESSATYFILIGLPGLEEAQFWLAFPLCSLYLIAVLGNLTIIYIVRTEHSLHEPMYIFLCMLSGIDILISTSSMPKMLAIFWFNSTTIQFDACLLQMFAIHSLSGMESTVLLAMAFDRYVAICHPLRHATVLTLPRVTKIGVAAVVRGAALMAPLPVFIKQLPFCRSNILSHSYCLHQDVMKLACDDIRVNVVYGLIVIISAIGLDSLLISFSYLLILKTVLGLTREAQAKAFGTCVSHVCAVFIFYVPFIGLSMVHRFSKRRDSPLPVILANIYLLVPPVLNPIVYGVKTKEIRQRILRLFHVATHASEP

EC50 (OR1A1) [µM]	EC50 (OR51E1) [µM]	Compound
38.9		CC(C)[C@@H]1CC[C@@H](C)C[C@H]1O [L-menthol]
0.513		C=C(C)[C@@H]1CC=C(C)C(=O)C1 [R-carvone]
	34.7	CCCCC(=O)O [pentanoate]

Source: paper PMC13504986 (Nature, 2024)
